“Also recorded” adds a separate entry of the source.

One data set has as its system B16BL6 melanoma cells. Kind of data set: metastasis of B16BL6 melanoma cells (lung metastatic deposits in mice). In kind it is in vivo, mouse. The settings on record: BL6 cells injected into mice; irrespective of route or timing. The procedure:
BL6 cells were injected into mice and metastatic deposits in the lung were assessed after various treatments including route and timing, of administration.

Data set [1] concerns neutrophils. The experiment in a line: superoxide production in neutrophils (reduction of cytochrome C). In kind it is cell-based, human. The procedure: Human neutrophils were obtained from normal male adults. Heparinized peripheral blood was mixed gently with an equal amount of 1% dextran solution in PBS in a 60 ml injection syringe. The mixture was allowed to sit vertically for 60 to 90 minutes at 37° C. The upper phase, which is rich in white blood cells, was mounted gently on the same volume of Ficoll-Paque (Pharmacia LKB, Uppsala, Sweden) in Falcon 2095 plastic test tubes (Becton Dickinson Labware, Lincoln Park, N.J.). Centrifugation at 450g for 30 min at 4° C. brought the neutrophils to the bottom of the tubes. The upper phase and interface, which contains lymphocytes, were removed carefully by aspiration.
Contaminating erythrocytes were removed from the cell pellet by hypotonic lysis by resuspending the cell pellet in ice-cold distilled water for 30 sec then adding an equal volume of ice-cold 1.8% NaCl solution. After centrifugation at 80g for 10 min, the cells were resuspended with a suitable buffer or media.
The final preparation consisted of more than 98% neutrophils, as determined by Wright-Giemsa staining. The suspension was stored at 4° C. and used within 3 hr.

In data set [2] the test system is 40 kD (or 47 kD) platelet protein. Kind of data set: phosphorylation of platelet protein on thrombin stimulation. It counts as cell-based. An excerpt:
On thrombin stimulation, a 40 kD (or 47 kD) platelet protein is phosphorylated. […] While not wanting to be bound by their statement, the inventors believe that absence of phosphorylated 40 kD (or 47 kD) protein prevents platelet aggregation.

Another data set has as its system erythrocyte. The experiment in a line: erythrocyte metabolic activity under blood storage conditions. In kind it is cell-based. The settings on record: in vitro, normal blood storage conditions; reduction of erythrocyte enzyme activity. An excerpt: Similar results can be expected for leukocytes and platelets.
Data set [3] concerns neutrophils. Kind of data set: neutrophil trans-endothelial migration through HUVEC monolayer. It counts as cell-based, human. The settings on record: IL-1β-activated EC's; pre-treatment of neutrophils. The procedure: A characteristic of neutrophils is the ability to adhere to activated EC's and to migrate through the EC monolayer into the vascular or extravascular matrix. The effect of TMS on neutrophil interactions with EC's and their subsequent trans-endothelial migration thereof can be monitored in vitro using human umbilical endothelial cells (HUVEC's) (Luscinskas et al., J. Imm., 146, 1617, 1991). Neutrophils are added to a HUVEC monolayer and neutrophil-HUVEC interactions are assessed microscopically following fixation, embedding and staining of monolayer sections.
Under physiological conditions, neutrophils are able to migrate into the collagenous matrix through the EC monolayer. When EC's are activated with IL-1β in M199 medium for 4 hours, neutrophils migrate into the collagenous matrix within 90 minutes.

The test system of data set [4] is 47 kDa and 65 kDa proteins. The experiment in a line: PMA-stimulated protein phosphorylation in 32P-labeled neutrophils. It counts as cell-based, human. The settings on record: neutrophils pre-incubated with 15-45 μM, then 1.5 μM PMA. As to the method:
Excess unbound components were removed by centrifugation and the pellets were resuspended in the same buffer, repeating twice. The cells then were divided into 7 treatment groups, each containing ≈1×10^7 cells in a total volume of 0.4 ml. TMS, SPN or DMS was added to a suspension and incubated at 37° C. for 10 min, followed by addition of PMA to a final concentration of 1.5 μM. Two minutes later, the reaction was terminated by adding 0.1 ml of Laemmli sample buffer and 20 mM EDTA, followed by heating at 100° C. for 5 min. Aliquots were separated through 10% sodium dodecyl sulfate gels using known procedures. ^32 P incorporation was visualized by autoradiography.

Data set [5] has as its system neutrophils. The experiment in a line: phagokinetic activity of neutrophils on gold sol-coated plates. It counts as cell-based, human. From the text:
The phagokinetic activity of neutrophils on gold sol-coated plates can be determined by a technique essentially as taught in Albrecht-Buehler (Cell, 11, 395, 1977). […] The TMS-dependent inhibitory effect is reversed completely when the culture medium is replaced with TMS-free medium. Thus, the inhibitory effect of TMS on phagokinetic activity is not dependent on cytotoxicity.

Another data set can be described thus: water solubility. In kind it is physicochemical. The settings on record: particularly at physiologic pH.
A further data set deals with BL6 cells. The experiment in a line: tritiated thymidine incorporation, cell growth. In kind it is cell-based, mouse. The settings on record: BL6 cells in vitro. As to the method: (§1) An in vitro assay relying on tritiated thymidine incorporation can be used to ascertain the effect of various compounds on cell proliferation. Briefly, tumor cells are seeded in flat bottom 96 well plates (Corning, N.Y.) at a concentration of 2×10^4 cells per well. The cells were cultured for 2 days in DMEM containing various concentrations of sphingoid which was added as a PBS solution. The medium then was supplemented with tritiated thymidine at a concentration of 0.5 μCi per well. Following a six hour incubation the cells were collected using the PHD Cell Harvester (Cambridge Technology, Cambridge, Mass.) and amounts of incorporated radioactivity were determined after adding a suitable cell lysing agent and scintillation cocktail, such as ScintiVerse BD (Fisher Scientific, Fairlawn, Calif.) which performs both functions.
(§2) Certain cancer cells show a higher metastatic potential and invasive capability than others. For example, in the mouse, the BL6 and F10 melanoma cell lines are highly metastatic and invasive. On the other hand, the F1 variant is much less metastatic and invasive (I. R. Hart et al., Amer. J. Pathol., 97, 587-592 (1979); G. Poote et al., Cancer Res. 42, 2770-2778 (1982); F1 and F10 clones from ATCC CRL 6323, and CRL 6475, respectively). BL6 and F1 cells were tested in vitro as described above. […]

The next data set deals with F1 cells. Kind of data set: tritiated thymidine incorporation, cell growth. It counts as cell-based, mouse. The settings on record: F1 cells in vitro. As to the method:
as §1, §2

The subject of data set [6] is neutrophils. Kind of data set: fMLP-enhanced 32P incorporation into PI, PIP and PIP2 in neutrophils. In kind it is cell-based, human. The settings on record: fMLP 1 μM; pre-incubation of neutrophils. The procedure: Metabolic incorporation of [^32 P]sodium phosphate (4 mCi) into phosphatidylinositol (PI), phosphatidylinositol-4-phosphate (PIP) and phosphatidylinositol-4,5-bis-diphosphate (PIP2) is enhanced by chemotactic peptide fMLP (1 μM).

Take `CCCCCCCCCCCCC/C=C/C(O)C(CO)[N+](C)(C)C` (centres unmarked) [TMS, N,N,N-trimethylsphingosine]: the “lung colonization and tumor development” value in the data set with B16BL6 melanoma cells is given as “effective in suppressing”. Also, the “Superoxide production in neutrophils” value in the data set on neutrophils [1] is reported as “inhibited by TMS in a dose-dependent manner”. Also, the “phosphorylation of the 40 kD (or 47 kD) platelet protein” value in [2] is recorded as “inhibits phosphorylation”. Further, in the data set on erythrocyte, the erythrocyte metabolic activity entry was “retards erythrocyte metabolic activity”. Moreover, the Neutrophil migration result in the data set with neutrophils [3] is recorded as “inhibited strongly”. Further, the “phosphorylation of 47 kDa and 65 kDa proteins” value in [4] is given as “diminished significantly; also recorded: had an affect on phosphorylation”. The Phagokinetic activity entry with neutrophils [5] is listed as “suppressed significantly”. For the same molecule, the water solubility entry in the data set “water solubility” is “highly water soluble”. The inhibiting cell growth entry was “more effective than DMS and sphingosine” in the data set on BL6 cells; “more effective than DMS and sphingosine” with F1 cells. The “fMLP-dependent enhancement of 32P incorporation into PI, PIP and PIP2” value with neutrophils [6] is on record as “suppressed strongly”.

Values taken from patent US6031135A, “Trimethylsphingosine derivatives” (Oncomembrane, Inc., priority 1996, dated 2000).
